Patent US20180116993A1, “MODULATORS OF FARNESOID X RECEPTOR AND METHODS FOR THE USE THEREOF” (XIAMEN UNIVERSITY, priority 2015, published 2018)
Read-outs that look alike come from different tables or passages of the source. Marks after values point to notes of the source that are not given here.

Assays:
[1] = target: T1, FXR ligand binding domain (LBD) (Homo sapiens, UniProt Q96RI1); test: AlphaScreen assay: FXR LBD recruitment of coregulator peptide motifs (SRC2-3, SRC1-2); assay type: biochemical; settings: Table 2
T1 construct: made in house
T1 sequence (Q96RI1 262-486 limits assumed): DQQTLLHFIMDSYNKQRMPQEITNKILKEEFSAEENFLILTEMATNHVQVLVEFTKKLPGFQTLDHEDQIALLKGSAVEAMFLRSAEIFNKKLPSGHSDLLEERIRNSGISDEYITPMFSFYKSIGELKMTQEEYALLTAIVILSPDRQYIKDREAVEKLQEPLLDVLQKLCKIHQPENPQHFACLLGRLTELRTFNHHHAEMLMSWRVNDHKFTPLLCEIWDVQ
Method: In search of novel ligands for FXR, we used FXR ligand binding domain (LBD) as a bait to screen chemical libraries based on AlphaScreen biochemical assay, which determines the efficacy of small molecules in influencing binding affinity of FXR with coregulator peptides (see e.g., Jin et al., (2013) Nature communications 4, 1937).
The binding of the cofactor peptide motifs to FXR ligand binding domain (LBD) in response to ligands was determined by AlphaScreen assays using a hexahistidine detection kit from Perkins-Elmer. The FXR LBD protein was purified as described previously (see e.g., Jin et al., (2013) Nature communications 4, 1937). The experiments were conducted with approximately 20-40 nM receptor LBD and 20 nM biotinylated cofactor peptides in the presence of 5 μg/ml donor and acceptor beads in a buffer containing 50 mM MOPS, 50 mM NaF, 0.05 mM CHAPS, and 0.1 mg/ml bovine serum albumin, all adjusted to a pH of 7.4.

full-length FXR = target: T2, full-length FXR (Homo sapiens, UniProt Q96RI1); test: Cell-based FXR transactivation, EcRE luciferase reporter in COS-7 cells; settings: Table 2
T2 construct: The cells were co-transfected with plasmids encoding full-length FXR and the cognate luciferase reporter EcRE-Luc; expressed in transfected cells; host or cells: COS-7
T2 sequence (Q96RI1 1-486): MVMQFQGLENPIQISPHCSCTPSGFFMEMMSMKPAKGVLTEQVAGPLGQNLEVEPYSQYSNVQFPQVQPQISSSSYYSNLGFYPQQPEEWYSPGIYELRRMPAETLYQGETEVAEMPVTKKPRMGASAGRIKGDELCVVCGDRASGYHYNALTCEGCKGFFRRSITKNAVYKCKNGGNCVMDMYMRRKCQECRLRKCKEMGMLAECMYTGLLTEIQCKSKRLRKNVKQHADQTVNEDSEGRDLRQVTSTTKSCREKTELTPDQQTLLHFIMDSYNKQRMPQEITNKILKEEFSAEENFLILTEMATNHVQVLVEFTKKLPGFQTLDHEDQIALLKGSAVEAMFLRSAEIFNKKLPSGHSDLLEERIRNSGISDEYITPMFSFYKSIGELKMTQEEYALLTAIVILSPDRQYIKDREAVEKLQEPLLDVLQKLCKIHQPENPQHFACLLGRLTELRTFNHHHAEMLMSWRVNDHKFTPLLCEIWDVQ
Method: COS-7 cells were cotransfected with plasmids encoding full length FXR.
For transient transfection assay, COS-7 cells were maintained in DMEM containing 10% fetal bovine serum and were transiently transfected using Lipofectamine 2000 (Invitrogen). Before 24 h of transfection, 24-well plates were plated. The cells were co-transfected with plasmids encoding full-length FXR and the cognate luciferase reporter EcRE-Luc. Ligands were added 5 hours after transfection. Cells were harvested 24 hours later for the luciferase assays according to the manufacturer's instructions (Dual-Luciferase® Reporter Assay System, Promega). Luciferase activities were normalized to renilla activity co-transfected as an internal control.

[2] = test system: human colorectal adenocarcinoma HCT15 cells; test: MTT cell viability assay, HCT15; assay type: cell-based; settings: 48 h, read-out: Cell viability as a percentage of the cells treated with DMSO, HCT15
Description: (§1) The MTT assay is a colorimetric assay for assessing cell metabolic activity. It is widely used in high-throughput screening of antitumor drugs due to its high sensitivity and economical features. In this example, MTT was used to detect the inhibitory effects of compounds on various cancer cell lines. Cancer cells including human colorectal adenocarcinoma HCT15 cells, RA-resistant human colon cancer HCT116 cells, human cervical carcinoma Hela cells, human hepatoma HepG2 cells and human breast cancer MCF7 cells were cultured in DMEM medium containing 10% fetal bovine serum. 20 uM or 40 uM of compounds were administered to treat cells, cell viability is detected by MTT assay and expressed as a percentage of the cells treated with DMSO (Table 4).

[3] = test system: RA-resistant human colon cancer HCT116 cells; test: MTT cell viability assay, HCT116; assay type: cell-based; settings: 48 h, read-out: Cell viability as a percentage of the cells treated with DMSO, HCT116
Description: as §1

[4] = test system: human hepatoma HepG2 cells; test: MTT cell viability assay, HepG2; assay type: cell-based; settings: 48 h, read-out: Cell viability as a percentage of the cells treated with DMSO, HepG2
Description: as §1

[5] = test system: human cervical carcinoma Hela cells; test: MTT cell viability assay, Hela; assay type: cell-based; settings: 48 h, read-out: Cell viability as a percentage of the cells treated with DMSO, Hela
Description: as §1

[6] = test system: human breast cancer MCF7 cells; test: MTT cell viability assay, MCF-7; assay type: cell-based; settings: 48 h, read-out: Cell viability as a percentage of the cells treated with DMSO, MCF-7
Description: as §1

db/db mice = test: Hepatic triglyceride, liver histology, serum ALT and ALP in high-fat diet fed db/db mice; assay type: in vivo, mouse; settings: 10 mg/kg once daily for 10 days
Method: Liver tissues fixed in 4% paraformaldehyde in example 5 were performed for H&E staining by standard procedures. Liver tissues fixed in 4% paraformaldehyde were embedded in optimum cutting temperature compound (OCT), and cryosectioned. Frozen liver sections were stained with 0.3% oil red O according to standard procedures.
The triglyceride levels in liver tissues from mice treated with compounds were analyzed using Tissue triglyceride assay kit (Applygen, Beijing, China).
Alkaline Phosphatase (ALP) is a marker of cholestasis. Cholestasis can be suspected when there is an elevation of ALP enzymes. In fact, greater than 90% of patients with bile stasis will have an elevated alkaline phosphatase. […] The aminotransferase is used to evaluate the presence of hepatitis and may be elevated in cholestasis or with common bile duct obstruction. In this example, 8-10 week age db/db mice were fed with high-fat diet and treated with 10 mg/kg of compounds once daily for 10 days as in Example 5. The activities of serum ALP and ALT were analyzed using ALP kit and ALT kit, respectively (Nanjing Jiancheng Engineering Institute, China).

[7] = test system: inflammatory cytokines in tissues of db/db mice; test: Inflammatory cytokine mRNA levels in tissues of high-fat diet fed db/db mice (RT-PCR); assay type: in vivo, mouse; settings: 5 mg/kg
Description: In this example, we detected the levels of various inflammatory cytokines including iNOS, IFNγ, TGFβ, TNFα, COX2, IL-1β, IL-6, SAA1, MIP-1α and CD36 in liver, kidney, white adipose tissue (WAT) in various mice models, including wild type mice treated with APAP in example 4, high-fat diet fed diabetic and obesity db/db and KK-Ay mice in example 5, high-fat diet fed wild-type mice in Example 5, as well as in primary hepatocytes with LPS induced inflammation, using RT-PCR.

EC50 ([1]; SRC1-2 peptide, read-out: EC50 (μM) of FXR binding by AlphaScreen assay recruit SRC1-2): < 1 µM
EC50 ([1]; SRC2-3 peptide, read-out: EC50 (μM) of FXR binding by AlphaScreen assay recruit SRC2-3): < 1 µM
Cell-based FXR transactivation Fold changes by 5 μM compound (full-length FXR; 5 μM compound, positive: induction, minus: repression): −5
EC50 (full-length FXR; EcRE luciferase reporter): < 1 µM
SMILES: COc1cc(C(=O)OC2CCC3CCCCC3C2)ccc1N (stereo not drawn) [XD-32, decahydro-naphthalen-2-yl 4-amino-3-methoxybenzoate]
viability at 20 µM ([2]; HCT-15, 20 uM): 80 ± 7%
viability at 40 µM ([2]; HCT-15, 40 uM): 35 ± 7%
viability at 20 µM ([3]; HCT-116, 20 uM): 65 ± 7%
viability at 40 µM ([3]; HCT-116, 40 uM): 53 ± 7%
viability at 20 µM ([4]; 20 uM): 100 ± 7%
viability at 40 µM ([4]; 40 uM): 74 ± 7%
viability at 20 µM ([5]; 20 uM): 73%
viability at 40 µM ([5]; 40 uM): 30 ± 7%
viability at 20 µM ([6]; 20 uM): 100 ± 7%
viability at 40 µM ([6]; 40 uM): 95 ± 7%
Serum ALP (U/L) (db/db mice; vehicle 129 ± 15): 83 ± 23^a U/L
Serum ALT (U/L) (db/db mice; vehicle 377 ± 48, Table 17): 110 ± 42^a U/L
mRNA level of iNOS (fold), Liver tissue ([7]; vehicle 1.06 ± 0.14): 0.22 ± 0.12^a fold
mRNA level of iNOS (fold), Colon tissue ([7]; vehicle 1.12 ± 0.23): 0.45 ± 0.13^a fold
